Measurements from patent US20250281460A1, “PEGYLATED BILIRUBIN FOR THE TREATMENT OF […], OBESITY, FATTY LIVER DISEASE, CARDIOVASCULAR DISEASES AND TYPE II DIABETES” (The University of Toledo, priority 2019, published 2025).
Entries after “also recorded” stand apart in the source; their conditions may differ.

Columns and labels:
3T3-PPARγ2 cells = assay: SeaHorse mitochondrial respiration and gene activity in 3T3-PPARγ2 cells; format: cell-based, mouse; conditions: 3T3-L1 cells overexpressing PPARγ2
From the text: To investigate the specific role of bilirubin on PPARα or PPARγ as well as mitochondrial function and gene regulation, 3T3-LI cells that overexpressed each receptor (3T3-PPARα or 3T3-PPARγ2) were generated via lentivirus (FIGS. 2A-2B). […] The 3T3-Vector cells had no responses to biliverdin in FIGS. 2A-2B.
(§1) Cellular respiration was quantified using the Seahorse Extracellular Flux Analyzer XF-96 (Agilent Technologies, Cedar Creek, TX). The Seahorse XF Cell Mito Stress Test Kit (Agilent Technologies, Cat #103015-100) was used for analysis of cellular respiration. BAT or 3T3-L1 cells were seeded on a XF96 cell culture microplate (Agilent 101085-004) at 20,000 cells per well. Cells were then differentiated as previously described for 9 days. […] The oxygen consumption rate (OCR) and extracellular acidification rate (ECAR) were used to quantify the cellular energy phenotype of the cells. After treatment, cells were washed twice with Seahorse Bioscience Assay Media (XF Base media with 25 mM Glucose, 2 mM […], and 1 mM Sodium Pyruvate) then incubated with the buffer for 1 hour in a non-CO2 incubator. The Seahorse Cartridge ports were loaded with […] of assay media with […] FCCP, 10 μM Oligomycin, 5 μM Rotenone/Antimycin A in different ports an hour before assay. […] The raw data and graphs were supplied as an Excel File or Graphpad Prizm file.

3T3-L1-WAT adipocytes = assay: SeaHorse oxygen consumption rate in fully differentiated 3T3-L1-WAT adipocytes; format: cell-based, mouse; conditions: 50 μM biliverdin, 50 μM WY 14,463, 10 μM rosiglitazone
Procedure: To compare the effects of bilirubin on the activation of PPARα or PPARγ on mitochondrial function, a SeaHorse XFe96 Analyzer was used to measure oxygen consumption rate (OCR) in fully differentiated 3T3-L1-WAT adipocytes treated with 50 μM biliverdin, 50 μM WY 14,463 (PPARα agonist), or 10 μM rosiglitazone (PPARγ-agonist). […]. Rosiglitazone, but not biliverdin or WY 14,643, enhanced the coupling efficiency. None of the ligands affected non-mitochondrial respiration, basal respiration, or proton leak.
as §1

BAT cells [1] = assay: Lipid accumulation over differentiation of BAT cells; conditions: increasing doses over the differentiation of the BAT cells
From the text: Upon differentiation, cells were stained with Nile Red to visualize lipid content, and densitometry was used as a direct measure as previously described.

BAT cells [2] = assay: Real-time PCR in differentiated BAT cells; format: cell-based, murine; conditions: 50 μM biliverdin, 50 μM WY14,463, 10 μM rosiglitazone, 24 hrs
Procedure: (§2) Total RNA was extracted from mouse tissues using the miRNeasy Mini Kit (Qiagen). Total RNA was read on a NanoDrop 2000 spectrophotometer (Thermo Fisher Scientific, Wilmington, DE) and cDNA was synthesized using High Capacity cDNA Reverse Transcription Kit (Applied Biosystems). PCR amplification of the cDNA was performed by quantitative real-time PCR using TrueAmp SYBR Green qPCR SuperMix (Advance Bioscience). The thermocycling protocol consisted of 3 min at 95° C., 48 cycles of 15 sec at 95° C., 30 sec at 60° C., and based on primer size 0 to 30 sec at 72° C. and finished with a melting curve ranging from 60-95° C. to allow distinction of specific products. Normalization was performed in separate reactions with primers to 36B4.

3T3-L1 cells = assay: Real-time PCR of mitochondrial and lipid burning genes in 3T3-L1 cells; format: cell-based, mouse
Procedure: Whether bilirubin decreases adiposity by enhancing mitochondrial function was evaluated. It was previously shown that bilirubin reduces lipid accumulation in adipocytes. However, it remained to be determined if this occurs by activation of PPARα to reduce adiposity, selective actions on PPARγ, or is a dual PPAR agonist, which together may mediate its glucose- and lipid-lowering effects. First, to determine if bilirubin enhances genes for mitochondrial function, 3T3-L1 cells, a WAT-type murine pre-adipocyte cell line that differentiates to full adipocytes, were treated with increasing concentrations of biliverdin, which is more soluble and is rapidly produced to bilirubin, over the 9-day adipocytic differentiation protocol.
as §2

C=CC1=C(C)/C(=C/C2=NC(=C\c3[nH]c(/C=C4\NC(=O)C(C)=C4C=C)c(C)c3CCC(=O)O)/C(CCC(=O)O)=C2C)NC1=O [biliverdin]
gene related activity (3T3-PPARγ2 cells): did not have significant increase
mitochondrial respiration (3T3-PPARγ2 cells): no significant changes
ATP production (3T3-L1-WAT adipocytes): significantly elevated
mitochondrial OCR for maximum respiration (3T3-L1-WAT adipocytes): significantly increased
lipid accumulation (BAT cells [1]): no impact
Adrb3 mRNA (BAT cells [2]): significant increase; also recorded: only significantly higher
Ucp1 mRNA (BAT cells [2]): significant increase
Ucp1 mRNA (3T3-L1 cells; 1 μM): significantly heightened
Cpt1 mRNA expression (3T3-L1 cells; 50 μM): significantly increased
Ucp1 mRNA expression (3T3-L1 cells; 50 μM): significantly increased
